Experimental data reported in patent publication US20080038809A1, “ISOLATED LECTIN POLYPEPTIDES CONSISTING OF TRUNCATED […] UDP-GalNAc:POLYPEPTIDE N- ACETYLGALACTOSAMINYLTRANSFERASES” (GLYCOZYM APS, priority 2002, published 2008).
pIC50: −log10 of the molar value.

Columns and labels:
[1] = molecular target: T1, secreted soluble GalNAc-T4 (Homo sapiens, UniProt Q8N4A0); experiment: Inhibition of secreted soluble GalNAc-T4 (sT4) binding to GalNAc-MUC1 glycopeptide, ELISA
T1 construct: 6xHis (N); thrombin cleavage site (N); T7 antibody site (N); made in house; host or cells: baculovirus (pAcGP67A), High Five insect cells
Protocol: (§1) Direct binding ELISA assay was developed as follows: Polystyrene microtiter plates (Maxisorb, Nunc, Denmark) were coated with peptides or enzymatically glycosylated glycopeptides in PBS overnight at 4° C. Plates were washed and blocked with 0.1% Tween20 and 0.2% BSA in PBS for 1 h at room temperature, followed by incubation with biotinylated proteins in PBS with 0.05% Tween20 for 2 h at room temperature. After four washes with PBS, plates were incubated with 1:2,000 dilution streptavidin-HRP (Sigma) in PBS for 30 min at room temperature and washed four times with PBS. Development was performed with 0.5 mg/ml o-phenylenediamine and 0.02% H2O2 at room temperature for 15 min, and reaction stopped by adding 100 μl/well of 0.5 N H2SO4. Competitive inhibition assays were done at end-point titers of GalNAc-transferase proteins with one hour preincubations with inhibitor.
(§2) Inhibition experiments were used to further define the binding specificity of GalNAc-T2 and -T4 secreted soluble enzymes as well as lectin domains compared to Helix Pomatia lectin (Table IV).

[2] = molecular target: T2, secreted soluble GalNAc-T2 (Homo sapiens, UniProt Q10471); experiment: Inhibition of secreted soluble GalNAc-T2 (sT2) binding to GalNAc-MUC1 glycopeptide, ELISA
T2 construct: 6xHis (N); thrombin cleavage site (N); T7 antibody site (N); made in house; host or cells: baculovirus (pAcGP67A), High Five insect cells
Protocol: as §1, §2

GalNAc-T4 lectin domain = molecular target: T3, GalNAc-T4 lectin domain (Homo sapiens, UniProt Q8N4A0); experiment: Inhibition of GalNAc-T4 lectin domain (T4ld) binding to GalNAc-MUC1 glycopeptide, ELISA
T3 construct: comprises amino acid residues 405-578 of GALNT4; made in house; host or cells: baculovirus (pAcGP67-A), virus made in Sf9, protein produced in High Five insect cells
Protocol: as §1
(§3) In binding studies using lectins without biotinylation antibodies to the HIS-tag and the T7-tag, or in some experiments antibodies raised to GalNAc-T2 and -T4 enzymes were used to detect binding.
as §2

[3] = molecular target: human GalNAc-T2 (UDP-GalNAc:polypeptide N-acetylgalactosaminyltransferase T2), secreted soluble enzyme (sT2), wild type (Homo sapiens, UniProt Q10471); experiment: biochemical; conditions: binding to GalNAc-MUC1 glycopeptide
Protocol: The pH of 1 ml purified protein (0.3 mg/ml) in PBS was adjusted to pH 9 with 1 M NaOH and 40 μl N-hydroxy-succinimidobiotin (Sigma) dissolved in DMF (10 mg/ml) was added. The solution was mixed end-over-end for 2 hours at room temperature, and dialyzed three times against PBS and an equal volume of glycerol was added. The biotinylated proteins were stored at −20° C. in 50% glycerol until use.
Glycopeptides were purified by C-18 reverse phase HPLC. Peptides were custom synthesized by Neosystems (Strasbourg). Biotinylated Helix Pomatia lectin (HPA) was from KemEnTec (Denmark). Anti-MUC1 HMFG2 monoclonal antibody was a generous gift from Joyce Taylor-Papadimitriou.
as §1, with “Development was performed with 0.5 mg/ml o-phenylenediamine and 0.02% H2O2 at room temperature for 15 min, and reaction stopped by adding 100 μl/well of 0.5 N H2SO4. Competitive inhibition assays were done at end-point titers of GalNAc-transferase proteins with one hour preincubations with inhibitor.” left out

GalNAc-T2 lectin domain = molecular target: T4, GalNAc-T2 lectin domain (Homo sapiens, UniProt Q10471); experiment: Inhibition of GalNAc-T2 lectin domain (T2ld) binding to GalNAc-MUC1 glycopeptide, ELISA
T4 construct: comprises amino acid residues 408-571 of GALNT2; made in house; host or cells: baculovirus (pAcGP67-A), virus made in Sf9, protein produced in High Five insect cells
T4 sequence (Q10471 408-571): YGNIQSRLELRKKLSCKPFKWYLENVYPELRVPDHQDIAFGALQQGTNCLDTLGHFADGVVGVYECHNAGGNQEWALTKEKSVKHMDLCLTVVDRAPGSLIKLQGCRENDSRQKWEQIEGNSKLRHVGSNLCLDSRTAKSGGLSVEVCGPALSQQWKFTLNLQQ
Protocol: as §1, §3, §2

[4] = system: unglycosylated MUC1 peptide; experiment: Direct binding assay (ELISA) of biotinylated GalNAc-transferases to unglycosylated MUC1 peptide (FIG. 4); design: species or system human; conditions: coated at 1 μg/ml, biotinylated enzymes
Protocol: (§4) FIG. 4 is a plot of absorbance v. ligand dilution showing GalNAc-transferase binding to GalNAc-MUC1 glycopeptide. A direct binding assay (ELISA) mediated by the lectin domain was developed and validated with soluble secreted GalNAc-T4 and -T2 enzyme proteins. ELISA plates were coated with peptides or glycopeptides at 1 μg/ml, blocked with BSA, and incubated with biotinylated enzymes. After washing, bound enzyme proteins were detected with HRP-Streptavidin as described in detail in Example 2. Secreted soluble constructs of GalNAc-transferases which are enzymatically active may bind to (glyco)peptide substrates through their catalytic units as originally described for GalNAc-T2^32.
as §1, with “Development was performed with 0.5 mg/ml o-phenylenediamine and 0.02% H2O2 at room temperature for 15 min, and reaction stopped by adding 100 μl/well of 0.5 N H2SO4. Competitive inhibition assays were done at end-point titers of GalNAc-transferase proteins with one hour preincubations with inhibitor.” left out

GalNAc-MUC1 glycopeptide = experiment: Direct binding assay (ELISA) of biotinylated GalNAc-transferases to GalNAc-MUC1 glycopeptide (FIG. 4); design: species or system human; conditions: coated at 1 μg/ml, biotinylated enzymes
Protocol: as §4
as §1, with “Development was performed with 0.5 mg/ml o-phenylenediamine and 0.02% H2O2 at room temperature for 15 min, and reaction stopped by adding 100 μl/well of 0.5 N H2SO4. Competitive inhibition assays were done at end-point titers of GalNAc-transferase proteins with one hour preincubations with inhibitor.” left out

T1 sequence (Q8N4A0 36-578 limits assumed): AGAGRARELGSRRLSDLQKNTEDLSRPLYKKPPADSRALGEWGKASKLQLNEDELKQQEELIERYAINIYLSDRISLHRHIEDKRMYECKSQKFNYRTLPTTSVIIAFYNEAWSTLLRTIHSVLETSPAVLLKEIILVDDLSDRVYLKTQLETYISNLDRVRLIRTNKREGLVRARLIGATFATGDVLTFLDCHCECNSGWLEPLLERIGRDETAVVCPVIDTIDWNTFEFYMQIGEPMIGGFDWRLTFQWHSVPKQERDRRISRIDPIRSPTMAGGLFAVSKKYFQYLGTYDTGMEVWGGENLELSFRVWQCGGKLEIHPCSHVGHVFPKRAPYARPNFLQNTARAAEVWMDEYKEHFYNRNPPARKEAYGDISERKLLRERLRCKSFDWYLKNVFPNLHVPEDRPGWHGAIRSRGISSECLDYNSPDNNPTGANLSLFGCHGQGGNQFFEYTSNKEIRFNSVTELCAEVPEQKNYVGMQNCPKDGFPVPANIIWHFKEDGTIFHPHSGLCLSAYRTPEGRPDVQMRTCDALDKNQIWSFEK
T2 sequence (Q10471 52-571 limits assumed): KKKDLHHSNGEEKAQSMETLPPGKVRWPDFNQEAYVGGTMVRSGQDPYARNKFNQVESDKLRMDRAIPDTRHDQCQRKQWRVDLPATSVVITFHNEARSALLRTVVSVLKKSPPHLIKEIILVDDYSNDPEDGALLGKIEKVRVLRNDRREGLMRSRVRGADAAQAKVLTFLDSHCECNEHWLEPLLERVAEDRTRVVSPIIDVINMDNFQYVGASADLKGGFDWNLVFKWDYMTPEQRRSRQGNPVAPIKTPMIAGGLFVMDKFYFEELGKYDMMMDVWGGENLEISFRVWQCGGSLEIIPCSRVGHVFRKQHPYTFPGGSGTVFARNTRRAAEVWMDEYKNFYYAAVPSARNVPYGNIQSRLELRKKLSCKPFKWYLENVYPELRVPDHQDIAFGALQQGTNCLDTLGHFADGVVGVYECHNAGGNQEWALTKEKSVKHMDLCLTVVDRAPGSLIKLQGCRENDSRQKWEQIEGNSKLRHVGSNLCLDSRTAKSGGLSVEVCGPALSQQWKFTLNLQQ
T3 sequence (Q8N4A0 405-578): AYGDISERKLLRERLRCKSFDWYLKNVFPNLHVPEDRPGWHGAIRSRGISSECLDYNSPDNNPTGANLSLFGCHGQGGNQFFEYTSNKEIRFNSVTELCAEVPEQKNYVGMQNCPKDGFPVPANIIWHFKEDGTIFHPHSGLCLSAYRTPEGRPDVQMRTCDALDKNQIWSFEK
Chain of human GalNAc-T2 (UDP-GalNAc:polypeptide N-acetylgalactosaminyltransferase T2), secreted soluble enzyme (sT2), wild type (Q10471 52-571 limits assumed): as the sequence (Q10471 52-571 limits assumed) above

Compound	pIC50 [1]	pIC50 [2]	binding to unglycosylated MUC1 peptide [4]	binding to GalNAc-MUC1 glycopeptide (GalNAc-MUC1 glycopeptide)	also measured
CC(=O)N[C@H]1[C@@H](Oc2ccccc2[N+](=O)[O-])O[C@H](CO)[C@H](O)[C@@H]1O [oNPαGalNAc]	3.30	2.15			pIC50 (GalNAc-T4 lectin domain): 2.30
CC(=O)N[C@H]1[C@H](Oc2ccccc2[N+](=O)[O-])O[C@H](CO)[C@H](O)[C@@H]1O [oNPβGalNAc]					pIC50 [3]: 2.00
CC(=O)N[C@H]1[C@@H](Oc2ccc([N+](=O)[O-])cc2)O[C@H](CO)[C@H](O)[C@@H]1O [pNPαGalNAc]	3.00	< 2.00			pIC50 (GalNAc-T2 lectin domain): < 2.00
GalNAc-T2: soluble secreted human GalNAc-T2 enzyme protein, biotinylated			no significant binding	selectively bind	
GalNAc-T4 wild type: soluble secreted human GalNAc-T4 enzyme protein, biotinylated			no significant binding	selectively bind	
